Source: US10729817B2, “Medical device and plasticized nylon” (Medtronic Vascular, Inc., priority 2013, dated 2020)

Legend:
[1] = Thermal properties of plasticized Nylon-12 by DSC; assay type: physicochemical; conditions: for Crystallinity / mp: 10 wt-% plasticizer in RILSAN Nylon-12, Nylon-12 unplasticized
Method: (§1) Samples of 5, 10, and 15 wt-% of plasticizer from Example 1 were compounded with Nylon-12 in a Brabender mixer at 210° C. Sheets (30-mils thick) were pressed at 200° C. Tensile specimens were punched and tested on an INSTRON testing machine at a cross-head speed of 2 inches/minute according to ASTM D638 test Method. The flexural properties were tested according to ASTM D790-97B test method. The average tensile and flexural moduli of plasticized Nylon-12 are shown in FIG. 3 and FIG. 4, respectively.
(§2) A sample of 10 wt-% of plasticizer from each of Examples 15-17 was compounded with RILSAN Nylon-12 as described in Example 2. The melting point (mp) and crystallinity was determined by DSC.
(§3) A sample of 10 wt-% of plasticizer from each of Examples 4-5 and 19-20 was compounded with RILSAN Nylon-12 as described in Example 2. The melting point (mp) and crystallinity was determined by DSC.

[2] = Tensile test of pressed films, ASTM D638, INSTRON; assay type: physicochemical; conditions: for Elongation / Tensile Modulus / Tensile Strength / Tensile elastic modulus: 10 wt-% plasticizer in RILSAN Nylon-12 film; for Elongation / Tensile Modulus / Tensile Strength: Nylon-12 unplasticized
Method: as §1, §2, §3
A sample of 5-10 wt-% in RILSAN Nylon-12 was compounded with 5-10 wt-% plasticizer from Example 8 under similar conditions as in Example 9. Sheets (30-mils thick) were pressed at 200° C. from pellets. Tensile specimens were punched and tested on an INSTRON testing machine at a cross-head speed of 2 inches/minute according to ASTM D638 test Method.

[3] = Flexural properties of pressed films, ASTM D790-97B; assay type: physicochemical; conditions: for Flexural elastic modulus: 10 wt-% plasticizer in RILSAN Nylon-12 film
Method: as §1

[4] = Thermal properties of plasticized Nylon-12 by DSC; assay type: physicochemical
[5] = 5, 10, 15 wt-% plasticizer in Nylon-12
[6] = 5-10 wt-% plasticizer in RILSAN Nylon-12
[7] = 10 wt-% plasticizer in GRILAMID L25 Nylon-12

Crystallinity ([1]; Table 3) | mp ([1]; Table 3) | Elongation ([2]; Table 3) | Tensile Modulus ([2]; Table 3) | Tensile Strength ([2]; Table 3) | Crystallinity ([1]; Table 2) | mp ([1]; Table 2) | Elongation ([2]; Table 2) | Tensile Modulus ([2]; Table 2) | Tensile Strength ([2]; Table 2) | Compound | other results
 |  |  |  |  |  |  |  |  |  | CCCCCCCC(=O)NCCN(CCNC(=O)CCCCCCC)C(=O)CCCCCCC [Example 1, N,N′,N″-trioctanoyl diethylenetriamine] | % Crystallinity ([1]; 5% plasticizer in Nylon-12): 28.8%; Tm Melt peak ([1]; 5% plasticizer in Nylon-12): 176.6 °C; ΔHm ([1]; 10% plasticizer in Nylon-12): 58.2 J/g; % Crystallinity ([1]; 15% plasticizer in Nylon-12): 26.2%; Tensile modulus of Nylon-12 after adding the plasticizer [2, 5]: decreased; Flexural modulus of Nylon-12 after adding the plasticizer [3, 5]: decreased; ΔHm ([4]; 5% plasticizer in Nylon-12): 60.2 J/g; % Crystallinity ([4]; 10% plasticizer in Nylon-12): 27.8%; Tm Melt peak ([4]; 10% plasticizer in Nylon-12): 175.9 °C; Tm Melt peak ([4]; 15% plasticizer in Nylon-12): 173.9 °C; ΔHm ([4]; 15% plasticizer in Nylon-12): 54.7 J/g
29.8 % by DSC | 175.2 °C | 231% | 66588 psi | 7422 psi |  |  |  |  |  | CCCCCCC(=O)NCCN(CCNC(=O)CCCCCC)C(=O)CCCCCC [Example 4, N,N′,N″-triheptanoyl diethylenetriamine] | 
29.2 % by DSC | 176.0 °C | 226% | 74935 psi | 7411 psi |  |  |  |  |  | CCCCCCCCC(=O)NCCN(CCNC(=O)CCCCCCCC)C(=O)CCCCCCCC [Example 5, N,N′,N″-trinonanoyl diethylenetriamine] | 
 |  |  |  |  |  |  |  |  |  | CCCCCCCC(=O)NCCN(CCNC(=O)CCCCCCC)C(=O)CCCCCCC [Example 8, N,N′,N″-trioctanoyl diethylenetriamine] | Tensile modulus versus plasticizer content [2, 6]: decreased with increasing plastic content; Tensile strength versus plasticizer content [2, 6]: did not change; Tensile strength of base resin GRILAMID L25 after adding plasticizer [2, 7]: maintained; Tensile elastic modulus ([2]; listed as unpurified material): 82997 psi; Flexural modulus after adding plasticizer [3, 7]: decreased significantly; Flexural elastic modulus ([3]; listed as unpurified material): 72345 psi
 |  |  |  |  |  |  |  |  |  | CCCCCCCC(=O)NCCN(CCNC(=O)CCCCCCC)C(=O)CCCCCCC [Example 13, N,N′,N″-trioctanoyl diethylenetriamine] | Tensile elastic modulus [2]: 85644 psi; Flexural elastic modulus [3]: 71839 psi; melting point: 97.9 °C
 |  |  |  |  | 24.6 % by DSC | 175.6 °C | 258% | 83455 psi | 8637 psi | CCCCCCC(=O)NCCCN(CCNC(=O)CCCCCC)C(=O)CCCCCC [Example 16, N-(2-aminoethyl)-1,3-propanediamine heptanoic acid triamide] | 
 |  |  |  |  | 25.2 % by DSC | 175.5 °C | 263% | 81308 psi | 8871 psi | CCCCCCCC(=O)NCCCN(CCNC(=O)CCCCCCC)C(=O)CCCCCCC [Example 17, N-(2-aminoethyl)-1,3-propanediamine octanoic acid triamide] | 
 |  |  |  |  | 26.7 % by DSC | 176.2 °C | 238% | 95902 psi | 9079 psi | CCCCCCCC(=O)NCCN(CCN(CCNC(=O)CCCCCCC)C(=O)CCCCCCC)C(=O)CCCCCCC [Example 18, Triethylenetetramine Octanoic Acid Tetramide] | 
31.0 % by DSC | 175.9 °C | 251% | 83517 psi | 8034 psi |  |  |  |  |  | CCCCCCCCCC(=O)NCCN(CCNC(=O)CCCCCCCCC)C(=O)CCCCCCCCC [Example 20, N,N′,N″-tridecanoyl diethylenetriamine] | 
